Reference: patent publication US20230037448A1, “FLUORINATED QUINOLINE AND QUINOXALINE DERIVATIVES AS DIHYDROOROTATE DEHYDROGENASE (DHODH) INHIBITORS FOR THE TREATMENT OF CANCER, AUTOIMMUNE AND INFLAMMATORY DISEASES” (Janssen Biotech, Inc., priority 2019, published 2023)

Key:
human DHODH = target: T1, human DHODH (Homo sapiens, UniProt Q02127); assay: DHODH Enzymatic Assay; format: biochemical; conditions: purified human DHODH; DCIP absorbance, end-point mode
T1 construct: purchased Proteros PR-0044
T1 sequence (Q02127 whole entry): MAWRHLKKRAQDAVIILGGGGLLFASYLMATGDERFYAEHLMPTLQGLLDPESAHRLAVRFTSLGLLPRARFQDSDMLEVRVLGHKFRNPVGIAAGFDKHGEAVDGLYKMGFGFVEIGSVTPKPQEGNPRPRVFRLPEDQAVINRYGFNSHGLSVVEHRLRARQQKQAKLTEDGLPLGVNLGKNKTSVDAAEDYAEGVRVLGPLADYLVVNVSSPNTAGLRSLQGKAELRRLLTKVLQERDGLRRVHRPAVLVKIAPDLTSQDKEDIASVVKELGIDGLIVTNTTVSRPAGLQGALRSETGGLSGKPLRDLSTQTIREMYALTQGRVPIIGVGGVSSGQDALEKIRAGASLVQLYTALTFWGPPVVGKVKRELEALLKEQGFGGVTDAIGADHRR
Description: To detect DHODH enzyme activities, dichloroindophenol (DCIP) is added as the final electron acceptor in the assay. DCIP can accept electrons from the reduced coenzyme Q generated in the assay, or from dihydroorotate (DHO) via FMN by binding presumably to the ubiquinone pocket. DCIP solutions are blue, with an intense absorbance around 600 nm, but becomes colorless upon reduction (J. Biol. Chem. (1986) 261, 11386). The assay buffer contained […], pH 7.5, 150 mM NaCl, 0.5 mM EDTA, and 0.1% Triton X-100 in MilliQ water. Substrate consisting of 20 mM DHO, 5 mM CoQ6, and 1 mM DCIP in assay buffer, initiates the reaction. The assay is run in end-point mode by quenching the reaction with the potent DHODH inhibitor brequinar. Absorbance measurements were obtained using the BMG Phera Star plate-reading spectrophotomer. Purified human DHODH was purchased from Proteros (cat. No. PR-0044). Chemicals were purchased from Sigma-Aldrich, Teknova, and Avanti Polar Lipids. Liquid handling was performed using Labcyte Echo and Formulatrix Tempest.

MOLM-13 cells = assay: MOLM-13 Cellular Assay; format: cell-based; conditions: 72 hours exposure, cell viability by CellTiter-Glo
Description: MOLM-13 cells were obtained from DSMZ and were maintained in RPMI 1640+Glutamax+25 mM HEPES (Invitrogen, catalog number 72400) supplemented with 10% heat inactivated fetal bovine serum (FBS; Invitrogen, catalog number 16140). The day prior to assay set-up, cells were pelleted, resuspended in fresh media, counted, and cells were plated at 0.4×10^6 cell/mL in a T150 flask. On the day of the assay, cells were pelleted, resuspend in fresh media, counted, and seeded at 5,000 cells/well in white opaque 96-well tissue culture treated microplates (Perkin Elmer, catalog number 6005680). Cells were exposed to different concentrations of test compounds at 37° C., 5% CO2 for 72 hours immediately after seeding. Cell viability was acquired on a Perkin Elmer Envision 2104 multilabel reader using the CellTiter-Glo assay (Promega) according to the manufacturer's instructions.

Row | Compound | IC50 (human DHODH) | IC50 (MOLM-13 cells; Homo sapiens, MOLM-13, 72 h) | IC50 (MOLM-13 cells)
1 | Cc1n[nH]c(C(F)(F)F)c1-c1cc(C(C)C)c2cc(-c3nc(CO)n(C)n3)c(F)cc2n1 [Example 28, (3-(7-Fluoro-4-isopropyl-2-(3-methyl-5-(trifluoromethyl)-pH-pyrazol-4-yl)quinolin-6-yl)-1-methyl-1H-1,2,4-triazol-5-yl)methanol] | 3 nM | 2 nM | 
2 | Cc1n[nH]c(Cl)c1-c1cc(C(C)C)c2cc(-c3nc(C(C)O)n(C)n3)c(F)cc2n1 (stereo not shown) [Example 31, 1-(3-(2-(5-Chloro-3-methyl-1H-pyrazol-4-yl)-7-fluoro-4-isopropylauinolin-6-yl)-1-methyl-1H-1,2,4-triazol-5-yl)ethan-1-ol] | 1.6 nM | 0.83 nM | 
3 | CCn1c(CO)nn(-c2cc3c(C(C)C)cc(-c4c(C)cnc(OC)c4C)nc3cc2F)c1=O [Example 4, 4-Ethyl-1-(7-fluoro-4-isopropyl-2-(2-methoxy-3,5-dimethylpyridin-4-yl)quinolin-6-yl)-3-(hydroxymethyl)-1H-1,2,4-triazol-5 (4H)-one] | 1.7 nM | 8.4 nM | 
4 | CCn1c(CO)nn(-c2cc3c(C(C)C)cc(-c4ccccc4C)[n+]([O-])c3cc2F)c1=O [Example 21, 6-(4-Ethyl-3-(hydroxymethyl)-5-oxo-4,5-dihydro-1H-1,2,4-triazol-1-yl)-7-fluoro-4-isopropyl-2-(o-tolyl)quinoline 1-oxide] | 4.6 nM | 5 nM | 
5 | CCn1c(CO)nn(-c2cc3c(C(C)C(F)(F)F)cc(-c4ccccc4C)nc3cc2F)c1=O (single isomer, unassigned) [Example 37, (R*)-4-Ethyl-1-(7-fluoro-2-(o-tolyl)-4-(1,1,1-trifluoropropan-2-yl)quinolin-6-yl)-3-(hydroxymethyl)-1H-1,2,4-triazol-5 (4H)-one] | 5.3 nM |  | 1 nM
6 | CCn1c(CO)nn(-c2cc3c(C(C)C)cc(-c4ccccc4OC)nc3cc2F)c1=O [Example 1, 4-Ethyl-1-(7-fluoro-4-isopropyl-2-(2-methoxyphenyl)quinolin-6-yl)-3-(hydroxymethyl)-1H-1,2,4-triazol-5 (4H)-one] | 3.3 nM | 2.6 nM | 
7 | CCn1c(CO)nn(-c2cc3c(C(C)C)cc(-c4c(C(F)(F)F)n[nH]c4C)nc3cc2F)c1=O [Example 3, 4-Ethyl-1-(7-fluoro-4-isopropyl-2-(5-methyl-3-(trifluoromethyl)-1H-pyrazol-4-yl)quinolin-6-yl)-3-(hydroxymethyl)-1H-1,2,4-triazol-5 (4H)-one] | 0.58 nM | 0.7 nM | 
8 | CCn1c(CO)nn(-c2cc3c(C(C)C)nc(-c4ccccc4C)nc3cc2F)c1=O [Example 10, 4-Ethyl-2-(7-fluoro-4-isopropyl-2-(o-tolyl)quinazolin-6-yl)-5-(hydroxymethyl)-2,4-dihydro-3H-1,2,4-triazol-3-one] | 1.9 nM | 2.2 nM | 
9 | CCn1c(CO)nn(-c2cc3c(C(C)C)nc(-c4c(C)n[nH]c4C(F)(F)F)nc3cc2F)c1=O [Example 34, 4-Ethyl-2-(7-fluoro-4-isopropyl-2-(3-methyl-5-(trifluoromethyl)-1H-pyrazol-4-yl)quinazolin-6-yl)-5-(hydroxymethyl)-2,4-dihydro-3H-1,2,4-triazol-3-one] | 5.2 nM | 4 nM | 
10 | Cc1n[nH]c(Cl)c1-c1cc(C(C)C)c2cc(-c3nc(CO)n(C)n3)c(F)cc2n1 [Example 30, (3-(2-(5-Chloro-3-methyl-1H-pyrazol-4-yl)-7-fluoro-4-isopropylauinolin-6-yl)-1-methyl-1H-1,2,4-triazol-5-yl)methanol] | 1.2 nM | 2 nM | 
11 | CCn1c(CO)nn(-c2cc3c(C(C)C)cc(-c4c(C)cnc(O)c4C)nc3cc2F)c1=O [Example 19, 4-Ethyl-2-(7-fluoro-2-(2-hydroxy-3,5-dimethylpyridin-4-yl)-4-isopropylauinolin-6-yl)-5-(hydroxymethyl)-2,4-dihydro-3H-1,2,4-triazol-3-one] | 12 nM | > 100 nM | 
12 | Cc1n[nH]c(Cl)c1-c1cc(C(C)C)c2cc(-c3cn(C)c(CO)n3)c(F)cc2n1 [Example 32, (4-(2-(5-Chloro-3-methyl-1H-pyrazol-4-yl)-7-fluoro-4-isopropylauinolin-6-yl)-1-methyl-1H-imidazol-2-yl)methanol] | 1.2 nM | 3 nM | 
13 | CCn1c(CO)nn(-c2cc3c(C(C)C(F)(F)F)cc(-c4ccccc4C)nc3cc2F)c1=O (single isomer, unassigned) [Example 36, (S*)-4-Ethyl-1-(7-fluoro-2-(o-tolyl)-4-(1,1,1-trifluoropropan-2-yl)quinolin-6-yl)-3-(hydroxymethyl)-1H-1,2,4-triazol-5 (4H)-one] | 0.32 nM |  | 0.4 nM
14 | [2H]C([2H])([2H])c1ccccc1-c1cc(C(C)C)c2cc(-n3nc(CO)n(CC)c3=O)c(F)cc2n1 [Example 38, 4-Ethyl-1-(7-fluoro-4-isopropyl-2-(o-methyl-d3-phenyl)quinolin-6-yl)-3-(hydroxymethyl)-1H-1,2,4-triazol-5 (4H)-one] | 1.7 nM |  | 

More lines, now with the values ahead:

Row | IC50 (human DHODH) | IC50 (MOLM-13 cells; Homo sapiens, MOLM-13, 72 h) | IC50 (MOLM-13 cells) | Compound
15 | 4.7 nM | 4 nM |  | CCn1c(CO)nn(-c2cc3c(C(C)C)cc(-c4c(C)ccnc4Cl)nc3cc2F)c1=O [Example 35, 1-(2-(2-Chloro-4-methylpyridin-3-yl)-7-fluoro-4-isopropylquinolin-6-yl)-4-ethyl-3-(hydroxymethyl)-1H-1,2,4-triazol-5 (4H)-one]
16 | 2280 nM | > 100 nM |  | CCn1c(CO)nn(-c2cc3c(C(C)C)cc(N4CCCC[C@H]4C)nc3cc2F)c1=O [Example 18, (R)-4-Ethyl-2-(7-fluoro-4-isopropyl-2-(2-methylpiperidin-1-yl)quinolin-6-yl)-5-(hydroxymethyl)-2,4-dihydro-3H-1,2,4-triazol-3-one]
17 | 270 nM | > 100 nM |  | CCN(CC)c1cc(C(C)C)c2cc(-n3nc(CO)n(CC)c3=O)c(F)cc2n1 [Example 13, 1-(2-(Diethylamino)-7-fluoro-4-isopropylquinolin-6-yl)-4-ethyl-3-(hydroxymethyl)-1H-1,2,4-triazol-5 (4H)-one]
18 | 0.49 nM | 1.7 nM |  | CCn1c(CO)nn(-c2cc3c(C(C)C)cc(-c4c(Cl)n[nH]c4C)nc3cc2F)c1=O [Example 2, 1-(2-(3-Chloro-5-methyl-1H-pyrazol-4-yl)-7-fluoro-4-isopropylauinolin-6-yl)-4-ethyl-3-(hydroxymethyl)-1H-1,2,4-triazol-5 (4H)-one]
19 | 33 nM | > 100 nM |  | CCn1c(CO)nn(-c2cc3c(C(C)C)cc(-c4cc(O)ncc4C)nc3cc2F)c1=O [Example 24, 4-Ethyl-1-(7-fluoro-2-(2-hydroxy-5-methylpyridin-4-yl)-4-isopropylquinolin-6-yl)-3-(hydroxymethyl)-1H-1,2,4-triazol-5 (4H)-one]
20 | 13 nM | 7 nM |  | CCn1c(CO)nn(-c2cc3c(C(C)C)cc(-c4c(Cl)c(OC)nn4C)nc3cc2F)c1=O [Example 26, 2-(2-(4-Chloro-3-methoxy-1-methyl-1H-pyrazol-5-yl)-7-fluoro-4-isopropylauinolin-6-yl)-4-ethyl-5-(hydroxymethyl)-2,4-dihydro-3H-1,2,4-triazol-3-one]
21 | 230 nM | 40 nM |  | CCn1c(CO)nn(-c2cc3c(C(C)C)cc(N4CCCC[C@@H]4C)nc3cc2F)c1=O [Example 17, (S)-4-Ethyl-2-(7-fluoro-4-isopropyl-2-(2-methylpiperidin-1-yl)quinolin-6-yl)-5-(hydroxymethyl)-2,4-dihydro-3H-1,2,4-triazol-3-one]
22 | 332 nM | > 100 nM |  | CCC(CC)Oc1cc(C(C)C)c2cc(-n3nc(CO)n(CC)c3=O)c(F)cc2n1 [Example 5, 4-Ethyl-1-(7-fluoro-4-isopropyl-2-(pentan-3-yloxy)quinolin-6-yl)-3-(hydroxymethyl)-1H-1,2,4-triazol-5 (4H)-one]
23 | 2.3 nM | 5 nM |  | CCn1c(CO)nn(-c2cc3c(C(C)C)cc(-n4nc(C)cc4C)nc3cc2F)c1=O [Example 12, 1-(2-(3,5-Dimethyl-1H-pyrazol-1-yl)-7-fluoro-4-isopropylquinolin-6-yl)-4-ethyl-3-(hydroxymethyl)-1H-1,2,4-triazol-5 (4H)-one]
24 | 120 nM | 100 nM |  | CCn1c(CO)nn(-c2cc3c(C(C)C)cc(N4CCCCC4)nc3cc2F)c1=O [Example 14, 4-Ethyl-1-(7-fluoro-4-isopropyl-2-(piperidin-1-yl)quinolin-6-yl)-3-(hydroxymethyl)-1H-1,2,4-triazol-5 (4H)-one]
25 | 730 nM | > 100 nM |  | CCn1c(CO)nn(-c2cc3c(C(C)C)cc(C4CCOCC4)nc3cc2F)c1=O [Example 20, 4-Ethyl-1-(7-fluoro-4-isopropyl-2-(tetrahydro-2H-pyran-4-yl)quinolin-6-yl)-3-(hydroxymethyl)-1H-1,2,4-triazol-5 (4H)-ene]
